These results are taken from US20090263852A1, “NONAPOPTOTIC FORMS OF CELL DEATH AND METHODS OF MODULATION” (priority 2000, published 2009).

Experiment [1] concerns IGFIR-IC transfected 293T cells. Description: IGFIR-IC-induced cell death (paraptosis) in transfected 293T cells, trypan blue exclusion. The format is cell-based. Also noted: inhibition of IGFIR-IC-induced cell death: dose or concentration left out as unconfirmed. As to conditions: for IGFIR-induced cell death following drug treatment: drug added 8.5 hrs after transfection, removed after 12 hrs, floating dead cells counted 24 hrs later with trypan blue. Here is the method:
Transient transfections used Lipofect-Amine (GIBCO, BRL, Rockville, Md.) according to the manufacturer's instructions. Briefly, 1×10^6 293T cells were seeded in 6 cm dishes, and transfected the next day using a ratio of DNA:Lipofect-Amine of 1 μg:5 μl.
Following expression of the IGIFR-IC constructs, the cell cultures were assayed for cell death. Cell death was assessed by trypan blue exclusion. Floating cells were collected at the indicated times after transfection, by centrifugation for 10 minutes at 1500 rpm. The cell pellet was subsequently resuspended in 50 μl of PBS, to which 50 μl of trypan blue was added. Dead cells were counted by 4 independent hemocytometer counts.
Briefly, caspase inhibitor BAF was added to pIGFIR-IC transfected 293T cells at a concentration of […]. In addition, 293T cells were cotransfected with […] of pIGFIR-IC and […] of either pcDNA3 or pxiap or pBcl-xL. […] BAF and zVAD.fmk were obtained from Enzyme System Products (Livermore, Calif.).
To assess IGFIR-induced cell death following treatment with Actinomycin D and cycloheximide, both drugs were obtained form Sigma and added to IGFIR-IC transfected 293T cells. Briefly, 293T cells were transfected as described above and 8.5 hours after the beginning of transfection the drugs were added at the indicated concentrations. The drugs were subsequently removed after 12 hours and the cells were fed with fresh medium. Floating cells were collected 24 hrs after the removal of the drugs and dead cells were counted in the presence of trypan blue.
To assess whether caspase-9 has a functional role in IGFIR-induced cell death 293T cells were transfected with 2 μg of DNA consisting of either pcDNA3, 0.5 μg pIGFIR-IC+1.5 μg pcDNA3 (Invitrogen, Carlsbad, Calif.), or 0.5 μg pIGFIR-IC+1.5 μg dominant negative caspase-9 (pC9DN) or dominant negative caspase-7 (pC7DN) expression constructs. 48 hours after transfection, dead cells were counted.

The test system of another experiment is Apoptosis. The settings on record: Table 1, Comparison of Apoptosis, Necrosis and Paraptosis; cited from earlier work.
Experiment [2] concerns 293T cells transfected with caspase-7 zymogen expression construct. Description: caspase-7 induced cell death in transfected 293T cells. The class given is cell-based. The settings on record: 50 μM final concentration, 48 hours after transfection. Here is the method:
(§1) In panel (A) 293T cells were transfected with the indicated pcDNA3-based caspase zymogen expression constructs. The general caspase inhibitor BAF was added at 50 μM final concentration. Cell death was assayed 48 hours after transfection. […] Asterisks indicate a highly significant difference from the control as determined by one-way ANOVA analysis (F=34.624, P<0.0001), P<0.0001 for pC9, P=0.0002 for pC7, and P=0.0001 for pC9+BAF (Bonferroni/Dunn post-hoc test). Error bars represent the SEM from three independent experiments. […] Cells were photographed 24 hours after transfection. […] BAF. […] Cells were stained as described in FIG. 2C. Panel (E) Electron micrograph of 293T cells transfected with an expression construct for pro-caspase-9 in the presence of. zVAD.fmk (40 μM). Morphology similar to IGFIR-IC-induced cell death was observed, including cytoplasmic vacuolation and the absence of chromatin condensation, nuclear fragmentation, and apoptotic body formation. Original magnification: 6000×.
(§2) Following expression of the IGIFR-IC constructs, the cell cultures were assayed for cell death. Cell death was assessed by trypan blue exclusion. Floating cells were collected at the indicated times after transfection, by centrifugation for 10 minutes at 1500 rpm. […] Dead cells were counted by 4 independent hemocytometer counts. […]

The subject of experiment [3] is 293T cells transfected with pro-caspase-9 (pC9). Description: caspase-9 induced cell death in transfected 293T cells. The class given is cell-based. Here is the method: as §1, §2
Experiment [4] relates to 293T cells transfected with pro-caspase expression constructs. Description: Internucleosomal DNA fragmentation of 293T cells transfected with pro-caspase expression constructs. As to conditions: 50 μM BAF. The class given is cell-based. Here is the method:
as §1
Since one of the defining features of apoptotic cell death is the fragmentation of chromatin, genome integrity was assayed by agarose gel electrophoresis. Oligonucleosomal DNA fragmentation was assessed by extraction of soluble DNA from 3×10^6 transfected cells as by Frisch and Francis, Journal of Cell Biology 124:619-626 (1994), which is incorporated herein by reference.

Starred links: 1 amine or outer side, 2 acyl side, 3 side chain; linkers in the order of their positions; H or OH if unused. Positions of bridges follow the written chain, without caps; N, C: chain ends. Non-standard residues stand in square brackets, D forms with d. Residues, ends and D or L forms follow the SMILES beside them. Chains are numbered I, II in the order given. Actinocin(9to1) = Cc1c2oc3c(C)ccc(C(=O)[*:1])c3nc-2c(C(=O)[*:2])c(N)c1=O; NMeV = CN[C@H](C(=O)O)C(C)C; Sar = CNCC(=O)O

`Cc1c2oc3c(C)ccc(C(=O)N[C@@H]4C(=O)N[C@H](C(C)C)C(=O)N5CCC[C@H]5C(=O)N(C)CC(=O)N(C)[C@@H](C(C)C)C(=O)O[C@@H]4C)c3nc-2c(C(=O)N[C@@H]2C(=O)N[C@H](C(C)C)C(=O)N3CCC[C@H]3C(=O)N(C)CC(=O)N(C)[C@@H](C(C)C)C(=O)O[C@@H]2C)c(N)c1=O` [Actinomycin D] (I: T[dV]P[Sar][NMeV] / II: T[dV]P[Sar][NMeV]; ester I:1-I:C, II:1-II:C; linker I:N-II:N via Actinocin(9to1)): the “IGFIR-induced cell death following drug treatment” value in experiment [1] is “restored cell viability to control levels”. Also, in the experiment on Apoptosis, the “Inhibition by: Apoptosis” value was “Sometimes”.

With `COC(=O)C[C@H](NC(=O)OC(C)(C)C)C(=O)CF` [BAF, t-butyloxycarbonyl-Asp (O-methyl)-fluoromethyl ketone], the “inhibition of IGFIR-IC-induced cell death” value in experiment [1] (293T cells) is “Neither the administration of the caspase inhibitor BAF at 50 mM (A) nor the cotransfection of xiap (B) or Bcl-xL (C) were effective”. The “inhibition of caspase-7 induced cell death” value in experiment [2] was “completely”. Further, the “morphology of pro-caspase-9 transfected cells, light microscopy” value in experiment [3] (50 μM BAF, 24 hours after transfection) is listed as “suppressed the apoptotic phenotype”. Moreover, the “inhibition of caspase-9 induced cell death” value in experiment [3] (50 μM final concentration, 48 hours after transfection) was determined as 30%. The “Internucleosomal DNA fragmentation” value in experiment [4] is “completely inhibited”.

Regarding `C[C@@H]1C[C@@H]([C@H](O)CC2CC(=O)NC(=O)C2)C(=O)[C@@H](C)C1` [Cycloheximide, cycloheximide], the “Inhibition by: Paraptosis” value in experiment [1] (Table 1, 293T cell death induced by IGFIR-IC) is 0. The “IGFIR-induced cell death following drug treatment” value in experiment [1] is “dose-dependent block”. The “Inhibition by: Apoptosis” value in the experiment on Apoptosis is “Sometimes”.

Take `CC[C@H]1/C=C/C=C/C[C@@H](C)[C@H](O)[C@@](C)(O)C(=O)[C@@H](C)[C@H](O)[C@@H](C)C(=O)[C@@H](C)[C@H](O)[C@@H](C)/C=C/C(=O)O[C@@H]2[C@H](C)[C@H](CC1)O[C@]1(CC[C@H](C)[C@H](C[C@@H](C)O)O1)[C@H]2C` [oligomycin]: the “block of IGFIR-induced cell death phenotype” value in experiment [1] (100 ng/ml) was “blocked the phenotype”.
